Measurements published in patent publication US7541020B2, “Aminoalkyl glucosaminide phosphate compounds and their use as adjuvants and immunoeffectors” (priority 1997, dated 2009).
Values joined by “and” are separate entries in the source; they are usually repeats but may differ in a detail not shown here. Equal entries are not always repeated. Where two headings read alike, the source gives them in different places.

Tests used:
E.G7 (OVA) cells = conditions: s.c. 25 μg OVA in AGP preparation, spleen cells 21 days later
[1] = system: hepatitis B surface antigen (HBsAg); test: Serum anti-HBsAg antibody titers after intranasal HBsAg + AGP-AF (ELISA); format: in vivo, BALB/c mice; conditions: for Anti HBsAg Titer^−1 IgG1 / Anti HBsAg Titer^−1 IgG2a: K = 10^3
[2] = system: hepatitis B surface antigen (HBsAg); conditions: for % Cytotoxicity (d16, post 2°): HBsAg + 10 μg AGP-AF intranasally; for % Cytotoxicity (d8, post 3°): intranasal HBsAg + 10 μg AGP-AF
[3] = system: hepatitis B surface antigen (HBsAg); test: Vaginal wash anti-HBsAg antibody after intranasal HBsAg + AGP-AF; format: in vivo, BALB/c mice; conditions: 10 days after the booster immunization; intranasal HBsAg + 10 μg AGP-AF
Source text: Vaginal samples were collected 10 days after the booster immunization and assayed for anti-HBsAg antibody.

influenza A/HK/68 [4] = system: influenza A/HK/68; parameters: species or system ICR mice; conditions: mouse, in vivo
influenza A/HK/68 [5] = format: in vivo, ICR mice
[6] = Fever response in rabbits (pyrogenicity); format: in vivo; conditions: 10 ug/kg; cumulative rise ≥1.5 degree in three rabbits is considered pyrogenic
Procedure: The AGP compounds were also evaluated for their tendency to induce a fever response in rabbits. Each compound was formulated in 10% (v/v) ethanol/water solution at 100 mg/ml, then diluted with D5W to the desired concentration. The material was injected at 3 ml/kg body weight into 3 rabbits. The rise in core temperature of the rabbits was recorded.

ovalbumin = test: Stimulation of antiovalbumin antibody production; format: in vivo, BDF1 female mice; conditions: 50 μg AGP + 50 μg ovalbumin; second immunization day 21; bled 14 days after second injection
Procedure: BDF1 female mice (8 per group) were immunized with 0.2 ml of emulsions containing 50 μg of the AGPs +50 μg of ovalbumin. A second immunization was administered 21 days post primary. Each mouse was bled 14 days after the second injection.

tetanus toxoid [7] = conditions: mouse, in vivo, sc
influenza A/HK/68 [8] = conditions: mouse, in vivo
TNF-α = test: Cytokine induction in human whole blood ex vivo culture: TNF-α (ELISA); format: cell-based; conditions: 4 hr, Table 19
Procedure: (§1) AGP compounds were solubilized in 10% EtOH-water and diluted to various concentrations. Fifty μl of each dilution were added to 450 μl of whole human blood. Controls were treated with culture media (RPMI). The reaction mixture was incubated at 37° C. for 4 hr with constant mixing on a rotator. Sterile PBS (1.5 ml) was added to the reaction mixture, the cells were centrifuged and the supernatents removed for cytokine testing. The concentration of TNF-α and IL-1β in each supernatent was determined using immunoassay ELISA kits from R&D Systems.

tetanus toxoid [9] = system: tetanus toxoid; parameters: species or system BFD1 (C57B1/6X DBA/2) female mice; conditions: mouse, in vivo
IL-1β = test: Cytokine induction in human whole blood ex vivo culture: IL-1β (ELISA); format: cell-based; conditions: 4 hr, Table 19
Procedure: as §1

[10] = day 22 post 2°, HBsAg + 10 μg AGP-AF intranasally
[11] = serum, day 21 post 3°, intranasal HBsAg + 10 μg AGP-AF
[12] = 25 μg AGP + 1 HAU FI-Flu in 0.2% TEoA, once, bled day 14, Table 11

3-Hydroxy-(S)-2-[(R)-3-decanoyloxytetradecanoylamino]propyl 2-Deoxy-4-O-phosphono-2-[(R)-3-decanoyloxytetradecanoylamino]-3-O-[(R)-3-decanoyloxytetradecanoyl]-β-D-glucopyranoside Triethylammonium Salt [B5]
% Cytotoxicity (E.G7 (OVA) cells; E:T 12.5:1): 11%
% Cytotoxicity (E.G7 (OVA) cells; E:T 25:1): 18%
% Cytotoxicity (E.G7 (OVA) cells; E:T 50:1): 28%
Anti HBsAg Titer^−1 IgA [1, 10]: 3,200
Anti HBsAg Titer^−1 IgG1 [1, 10]: 256K
Anti HBsAg Titer^−1 IgG2a [1, 10]: 500K
Anti HBsAg Titer^−1 IgG1 [1, 11]: 500K
Anti HBsAg Titer^−1 IgG2a [1, 11]: 1000K
Anti HBsAg Titer^−1 IgA [1, 11]: 12,800
% Cytotoxicity (d16, post 2°) ([2]; E/T 6.25:1): 11%
% Cytotoxicity (d8, post 3°) ([2]; E/T 6.25:1): 12%
% Cytotoxicity (d16, post 2°) ([2]; E/T 12.5:1): 20%
% Cytotoxicity (d8, post 3°) ([2]; E/T 12.5:1): 19%
% Cytotoxicity (d16, post 2°) ([2]; E/T 25:1): 30%
% Cytotoxicity (d8, post 3°) ([2]; E/T 25:1): 30%
% Cytotoxicity (d16, post 2°) ([2]; E/T 50:1): 43%
% Cytotoxicity (d8, post 3°) ([2]; E/T 50:1): 44%
Vaginal Wash Anti-HBsAg Titer^−1 IgA [3]: 1600
Vaginal Wash Anti-HBsAg Titer^−1 IgG [3]: 1600
IgG Titer-1 post 1° (influenza A/HK/68 [4]): 1600
IgG Titer-1 post 2° (influenza A/HK/68 [4]): >102,400
Percent Survival post 1° (influenza A/HK/68 [4]): 60%
Percent Survival post 2° (influenza A/HK/68 [4]): 90%
Percent Survival (influenza A/HK/68 [5]; mouse, in vivo): 44%
Titer−1 IgG1 (influenza A/HK/68 [5]; mouse, in vivo): 200
Titer−1 IgG2a (influenza A/HK/68 [5]; mouse, in vivo): 50
Titer−1 IgG2b (influenza A/HK/68 [5]; mouse, in vivo): 400
Titer−1 Total IgG (influenza A/HK/68 [5]; mouse, in vivo): 800
PYROGENICITY Total Rise ° C., 3 rabbits [6]: 4.1 °C

3-Hydroxy-(S)-2-[(R)-3-undecanoyloxytetradecanoylamino]propyl 2-Deoxy-4-O-phosphono-2-[(R)-3-undecanoyloxytetradecanoylamino]-3-O-[(R)-3-undecanoyloxytetradecanoyl]-β-D-glucopyranoside Triethylammonium Salt [B4]
% Cytotoxicity (E.G7 (OVA) cells; E:T 12.5:1): 60%
% Cytotoxicity (E.G7 (OVA) cells; E:T 25:1): 66%
% Cytotoxicity (E.G7 (OVA) cells; E:T 50:1): 72%
Anti HBsAg Titer^−1 IgA [1, 10]: 6,400
Anti HBsAg Titer^−1 IgG1 [1, 10]: 500K
Anti HBsAg Titer^−1 IgG2a [1, 10]: 1000K
Anti HBsAg Titer^−1 IgG1 [1, 11]: 1000K
Anti HBsAg Titer^−1 IgG2a [1, 11]: 2000K
Anti HBsAg Titer^−1 IgA [1, 11]: 25,600
% Cytotoxicity (d16, post 2°) ([2]; E/T 6.25:1): 7%
% Cytotoxicity (d8, post 3°) ([2]; E/T 6.25:1): 5%
% Cytotoxicity (d16, post 2°) ([2]; E/T 12.5:1): 9%
% Cytotoxicity (d8, post 3°) ([2]; E/T 12.5:1): 9%
% Cytotoxicity (d16, post 2°) ([2]; E/T 25:1): 17%
% Cytotoxicity (d8, post 3°) ([2]; E/T 25:1): 15%
% Cytotoxicity (d16, post 2°) ([2]; E/T 50:1): 28%
% Cytotoxicity (d8, post 3°) ([2]; E/T 50:1): 23%
Vaginal Wash Anti-HBsAg Titer^−1 IgA [3]: 6400
Vaginal Wash Anti-HBsAg Titer^−1 IgG [3]: 1600
IgG Titer-1 post 1° (influenza A/HK/68 [4]): 800
IgG Titer-1 post 2° (influenza A/HK/68 [4]): 25,600
Percent Survival post 1° (influenza A/HK/68 [4]): 50%
Percent Survival post 2° (influenza A/HK/68 [4]): 70%
Percent Survival (influenza A/HK/68 [5]; mouse, in vivo): 60%
Titer−1 IgG1 (influenza A/HK/68 [5]; mouse, in vivo): 400
Titer−1 IgG2a (influenza A/HK/68 [5]; mouse, in vivo): 100
Titer−1 IgG2b (influenza A/HK/68 [5]; mouse, in vivo): 1600
Titer−1 Total IgG (influenza A/HK/68 [5]; mouse, in vivo): 3200
PYROGENICITY Total Rise ° C., 3 rabbits [6]: 3.4 °C

3-[(R)-3-Tetradecanoyloxytetradecanoylamino]propyl 2-Deoxy-4-O-phosphono-3-O-[(R)-3-tetradecanoyoxytetradecanoyl]-2-[(R)-3-tetradecanoyloxytetradecanoylamino])-β-D-glucopyranoside Triethylammonium Salt [B21]
Anti-ovalbumin IgG1 T/C (ovalbumin): 0.6
Anti-ovalbumin IgG1 Titer (ovalbumin): 1000
Anti-ovalbumin IgG2a T/C (ovalbumin): 0.1
Anti-ovalbumin IgG2a Titer (ovalbumin): 25
Anti-ovalbumin IgG2b T/C (ovalbumin): 0.8
Anti-ovalbumin IgG2b Titer (ovalbumin): 200
Anti-ovalbumin IgM T/C (ovalbumin): 1.3
Anti-ovalbumin IgM Titer (ovalbumin): 250
Anti-ovalbumin Total Ig T/C (ovalbumin): 0.5
Anti-ovalbumin Total Ig Titer (ovalbumin): 113
Anti-tetanus toxoid IgG1 T/C (tetanus toxoid [7]): 2.23
Anti-tetanus toxoid IgG1 Titer (tetanus toxoid [7]): 480,000
Anti-tetanus toxoid IgG2a T/C (tetanus toxoid [7]): 5.83
Anti-tetanus toxoid IgG2a Titer (tetanus toxoid [7]): 29,600
Anti-tetanus toxoid IgG2b T/C (tetanus toxoid [7]): 6.07
Anti-tetanus toxoid IgG2b Titer (tetanus toxoid [7]): 174,400
Anti-tetanus toxoid IgM T/C (tetanus toxoid [7]): 5.50
Anti-tetanus toxoid IgM Titer (tetanus toxoid [7]): 8,800
Anti-tetanus toxoid Total IgG T/C (tetanus toxoid [7]): 4.71
Anti-tetanus toxoid Total IgG Titer (tetanus toxoid [7]): 30,400
Percent Survival (influenza A/HK/68 [8]): 40%
Titer−1 IgG1 (influenza A/HK/68 [8]): 800
Titer−1 IgG2a (influenza A/HK/68 [8]): 100
Titer−1 IgG2b (influenza A/HK/68 [8]): 1600
Titer−1 Total IgG (influenza A/HK/68 [8]): 6400

CCCCCCCCCCCC(=O)O[C@H](CCCCCCCCCCC)CC(=O)N[C@H]1[C@H](OC[C@H](NC(=O)C[C@@H](CCCCCCCCCCC)OC(=O)CCCCCCCCCCC)C(=O)O)O[C@H](CO)[C@@H](OP(=O)(O)O)[C@@H]1OC(=O)C[C@@H](CCCCCCCCCCC)OC(=O)CCCCCCCCCCC.CCN(CC)CC [B12, N-[(R)-3-Dodecanoyloxytetradecanoyl]-o-[2-Deoxy-4-O-phosphono-2-[(R)-3-dodecanoyloxytetradecanoylamino]-3-O-[(R)-3-dodecanoyloxytetradecanoyl]-β-D-glucopyranosyl]-L-serine Triethylammonium Salt]
TNF-α (TNF-α; Dosage 1000 ng/ml): 863 pg/mL
TNF-α (TNF-α; Dosage 5000 ng/ml): 957 pg/mL
TNF-α (TNF-α; Dosage 10,000 ng/ml): 1017 pg/mL
IgG1 T/C (tetanus toxoid [9]): 90.08 and 141.22 and 145.21 and 81.12 and 84.11
IgG1 Titer (tetanus toxoid [9]): 165,486 and 259,429 and 266,743 and 149,029 and 154,514
Total Ig T/C (tetanus toxoid [9]): 326.02 and 368.55 and 403.98 and 248.06 and 489.92
Total Ig Titer (tetanus toxoid [9]): 42,057 and 47,543 and 52,114 and 32,000 and 63,200
% Cytotoxicity (E.G7 (OVA) cells; E:T 12.5:1): 4%
% Cytotoxicity (E.G7 (OVA) cells; E:T 25:1): 7%
% Cytotoxicity (E.G7 (OVA) cells; E:T 50:1): 13%
Anti-tetanus toxoid IgG2a T/C (tetanus toxoid [7]): 139.4
Anti-tetanus toxoid IgG2a titer (tetanus toxoid [7]): 2370
Anti-tetanus toxoid IgG2b T/C (tetanus toxoid [7]): 149
Anti-tetanus toxoid IgG2b titer (tetanus toxoid [7]): 9840
Anti-tetanus toxoid IgM T/C (tetanus toxoid [7]): 3.1
Anti-tetanus toxoid IgM titer (tetanus toxoid [7]): 4800
IL-1β (IL-1β; Dosage 1000 ng/ml): 175 pg/mL
IL-1β (IL-1β; Dosage 5000 ng/ml): 153 pg/mL
IL-1β (IL-1β; Dosage 10,000 ng/ml): 135 pg/mL
Titer^−1 IgG1 (influenza A/HK/68 [5]; [12]): 200
Titer^−1 IgG2a (influenza A/HK/68 [5]; [12]): 100
Titer^−1 IgG2b (influenza A/HK/68 [5]; [12]): 200
Titer^−1 Total IgG (influenza A/HK/68 [5]; [12]): 200
Percent Survival (influenza A/HK/68 [5]; […], mortality 21 days, Table 11): 0%

CCCCCCCCCCCCCC(=O)O[C@H](CCCCCCCCCCC)CC(=O)N[C@H]1[C@H](OCCN(CC(=O)O)C(=O)C[C@@H](CCCCCCCCCCC)OC(=O)CCCCCCCCCCCCC)O[C@H](CO)[C@@H](OP(=O)(O)O)[C@@H]1OC(=O)C[C@@H](CCCCCCCCCCC)OC(=O)CCCCCCCCCCCCC.CCN(CC)CC [B27, N-(Carboxymethyl)-N-[(R)-3-tetradecanoyloxytetradecanoyl]-2-aminoethyl 2-Deoxy-4-O-phophono-2-[(R)-3-tetradecanoyloxytetradecanoylamino]-3-O-[(R)-3-tetradecanoyloxytetradecanoyl]-β-d-glucopyranoside Triethylammonium Salt]
IgG1 T/C Ratio (tetanus toxoid [9]): 1.6
IgG1 Titer (tetanus toxoid [9]): 10,400
IgG2a T/C Ratio (tetanus toxoid [9]): 12.0
IgG2a Titer (tetanus toxoid [9]): 900
IgG2b T/C Ratio (tetanus toxoid [9]): 11.6
IgG2b Titer (tetanus toxoid [9]): 9,000
IgM T/C Ratio (tetanus toxoid [9]): 4.0
IgM Titer (tetanus toxoid [9]): 11,200
Total Ig T/C Ratio (tetanus toxoid [9]): 3.2
Total Ig Titer (tetanus toxoid [9]): 6,800
% Cytotoxicity (E.G7 (OVA) cells; E:T 12.5:1): 5%
% Cytotoxicity (E.G7 (OVA) cells; E:T 25:1): 9%
% Cytotoxicity (E.G7 (OVA) cells; E:T 50:1): 17%
Anti-ovalbumin IgG1 T/C (ovalbumin): 0.8
Anti-ovalbumin IgG1 Titer (ovalbumin): 1275
Anti-ovalbumin IgG2a T/C (ovalbumin): 0.1
Anti-ovalbumin IgG2a Titer (ovalbumin): 38
Anti-ovalbumin IgG2b T/C (ovalbumin): 0.5
Anti-ovalbumin IgG2b Titer (ovalbumin): 113
Anti-ovalbumin IgM T/C (ovalbumin): 1.6
Anti-ovalbumin IgM Titer (ovalbumin): 300
Anti-ovalbumin Total Ig T/C (ovalbumin): 0.6
Anti-ovalbumin Total Ig Titer (ovalbumin): 138
PYROGENICITY Total Rise ° C., 3 rabbits [6]: 3.9 °C
